From US20070099983A1, “Aminocyclohexyl ether compounds and uses thereof” (Cardiome Pharma Corp., priority 2003, published 2007)
Counter-ions that a name gives are not always drawn.

Test system: conscious rats
Assay: Determination of CNS toxicity: convulsions in conscious rats on increasing i.v. infusion
Assay type: in vivo
[1] = minimum i.v. infusion rate at which partial or complete convulsions are observed, conscious rats, maximum rate 64
[2] = total amount of drug infused when partial or complete convulsions are first observed, conscious rats

SMILES	cum conv dose (rat, in vivo) [µmol/kg]	convulsion dose (rat, in vivo, iv) [µmol/kg/min]	convulsion dose [1] [µmol/kg/min]	cum conv dose [2] [µmol/kg]
Cl.FC(F)(F)c1ccccc1CCO[C@H]1CCCC[C@H]1N1CCOCC1 (racemic) [Compound 42, (1R,2S)/(1S,2R)-2-(4-morpholinyl)-1-[(2-trifluoromethyl)-phenethoxy]-cyclohexane monohydrochloride]	102	16		
COc1ccc(CCO[C@H]2CCCC[C@@H]2N2CC[C@@H](O)C2)cc1OC.Cl [Compound 2, (1S,2S)-2-[(3R)-Hydroxypyrrolidinyl]-1-(3,4-dimethoxyphenethoxy)cyclohexane monohydrochloride]	500.67	64		
COc1ccc(CCO[C@H]2CCCCC2N2CCC(O)C2)cc1OC (stereo partly drawn) [Compound 3, (1R,2R)/(1S,2S)-2-[(3R)/(3S)-Hydroxypyrrolidinyl]-1-(3,4-dimethoxyphenethoxy)-cyclohexane monohydrochloride]	502	64		
COc1ccc(CCO[C@H]2CCCCC2N2CC[C@@H](O)C2)cc1OC.Cl (stereo partly drawn) [Compound 4, (1R,2R)/(1S,2S)-2-[(3R)-Hydroxypyrrolidinyl]-1-(3,4-dimethoxyphenethoxy)-cyclohexane monohydrochloride]	502	64		
COc1ccc(CCO[C@H]2CCCCC2N2CC[C@H](O)C2)cc1OC.Cl (stereo partly drawn) [Compound 5, (1R,2R)/(1S,2S)-2-[(3S)-Hydroxypyrrolidinyl]-1-(3,4-dimethoxyphenethoxy)-cyclohexane monohydrochloride]	438	64		
COc1ccc(CCO[C@@H]2CCCC[C@H]2N2CC[C@H](O)C2)cc1OC.Cl [Compound 6, (1R,2R)-2-[(3S)-Hydroxypyrrolidinyl]-1-(3,4-dimethoxyphenethoxy) cyclohexane monohydrochloride]	472.24	64		
COc1ccc(CCO[C@H]2CCCC[C@@H]2N2CC[C@H](O)C2)cc1OC.Cl [Compound 7, (1S,2S)-2-[(3S)-Hydroxypyrrolidinyl]-1-(3,4-dimethoxyphenethoxy)cyclohexane monohydrochloride]	451.67	64		
COc1ccc(CCOC2CCCC[C@H]2N2CCOCC2)cc1OC.Cl (stereo partly drawn) [Compound 8, 4-{(1R,2R)/(1S,2S)-2-[2-(3,4-dimethoxy-phenyl)ethoxy]cyclohexyl}morpholine hydrochloride]	113	16		
COc1ccc(CCO[C@H]2CCCCC2N2CCC3(C2)OCCO3)cc1OC.Cl (stereo partly drawn) [Compound 9, 7-{(1R,2R)/(1S,2S)-2-[2-(3,4-dimethoxyphenyl)-ethoxy]cyclohexyl}-1,4-dioxa-7-azaspiro[4.4]nonane hydrochloride]			16	91.33
COc1ccc(CCO[C@H]2CCCCC2N2CCCC2)cc1OC.Cl (stereo partly drawn) [Compound 10, 1-{(1R,2R)/(1S,2S)-2-[2-(3,4-dimethoxyphenyl)-ethoxy]cyclohexyl}-pyrrolidine hydrochloride]	118	21.33		
COc1ccc(CCO[C@H]2CCCCC2N2CC[C@H](OCc3ccccc3)C2)cc1OC.Cl (stereo partly drawn) [Compound 11, (3S)-3-benzyloxy-1-{(1R,2R)/(1S,2S)-2-[2-(3,4-dimethoxyphenyl)-ethoxy]cyclohexyl}-pyrrolidine hydrochloride]	38.13	8		
COc1ccc(CCO[C@H]2CCCCC2N2CC[C@@H](OCc3ccccc3)C2)cc1OC.Cl (stereo partly drawn) [Compound 12, (3R)-3-benzyloxy-1-{(1R,2R)/(1S,2S)-2-[2-(3,4-dimethoxyphenyl)-ethoxy]cyclohexyl}-pyrrolidine hydrochloride]	51.1	8		
COc1ccc(CCO[C@H]2CCCCC2N2CC[C@H](OC(C)=O)C2)cc1OC.Cl (stereo partly drawn) [Compound 13, (3S)-1-{(1R,2R)/(1S,2S)-2-[2-(3,4-dimethoxyphenyl)-ethoxy]cyclohexyl}-pyrrolidin-3-yl acetate hydrochloride]	51.9	8		
COc1ccc(CCOC2CCCC[C@H]2N2CCC(F)C2)cc1OC.Cl (stereo partly drawn) [Compound 14, (3R)/(3S)-1-{(1R,2R)/(1S,2S)-2-[2-(3,4-dimethoxyphenyl)-ethoxy]cyclohexyl}-3-fluoropyrrolidine hydrochloride]	63.33	10.67		
COc1ccc(CCO[C@H]2CCCCC2N2CCC[C@@H]2CO)cc1OC.Cl (stereo partly drawn) [Compound 15, {(2R)-1-{(1R,2R)/(1S,2S)-2-[2-(3,4-dimethoxyphenyl)-ethoxy]cyclohexyl}-pyrrolidin-2-yl}methanol hydrochloride]	142.33	16		
COc1ccc(CCOC2CCCC[C@H]2N2CC=CC2)cc1OC.Cl (stereo partly drawn) [Compound 16, 1-{(1R,2R)/(1S,2S)-2-[2-(3,4-dimethoxyphenyl)-ethoxy]cyclohexyl}-2,5-dihydro-1H-pyrrole hydrochloride]	44.4	8		

SMILES	cum conv dose (rat, in vivo) [µmol/kg]	convulsion dose (rat, in vivo, iv) [µmol/kg/min]	convulsion dose [1] [µmol/kg/min]	cum conv dose [2] [µmol/kg]
COc1ccc(CCO[C@@H]2CCCC[C@H]2N2CC[C@@H](OC(C)=O)C2)cc1OC.Cl [Compound 17, (3R)-1-{(1R,2R)-2-[2-(3,4-dimethoxyphenyl)-ethoxy]cyclohexyl}-pyrrolidin-3-yl acetate hydrochloride]	74.3	13.33		
COc1ccc(CCOC2CCCC[C@H]2N2CCC(=O)C2)cc1OC.Cl (stereo partly drawn) [Compound 18, 1-{(1R,2R)/(1S,2S)-2-[2-(3,4-dimethoxyphenyl)-ethoxy]cyclohexyl}-pyrrolidin-3-one hydrochloride]	235	32		
COc1ccc(CCCO[C@H]2CCCCC2N2CCOCC2)cc1OC.Cl (stereo partly drawn) [Compound 19, 4-{(1R,2R)/(1S,2S)-2-[3-(3,4-dimethoxyphenyl)-propoxy]cyclohexyl}morpholine hydrochloride]	109	16		
COc1ccc(CCCCO[C@H]2CCCCC2N2CCOCC2)cc1OC.Cl (stereo partly drawn) [Compound 20, 4-{(1R,2R)/(1S,2S)-2-[4-(3,4-dimethoxyphenyl)-butoxy]cyclohexyl}morpholine hydrochloride]	66.8	10.7		
COc1cc(CCCO[C@H]2CCCCC2N2CC[C@@H](O)C2)cc(Cl)c1OC.Cl (stereo partly drawn) [Compound 21, (3R)-1-{(1R,2R)/(1S,2S)-2-[3-(3-chloro-4,5-dimethoxyphenyl)-propoxy]cyclohexyl}pyrrolidin-3-ol hydrochloride]	90.9	13.33		
COc1ccc(CCOC2CCCC[C@H]2N2CCN(C(=O)Cc3ccc(OC)c(OC)c3)CC2)cc1OC.Cl (stereo partly drawn) [Compound 22, 1-[(3,4-dimethoxyphenyl)acetyl]-4-{(1R,2R)/(1S,2S)-2-[2-(3,4-dimethoxyphenyl)-ethoxy]cyclohexyl}-piperazine hydrochloride]			21.33	133
Cl.OC1CCN(C2CCCC[C@@H]2OCCc2c(Cl)cccc2Cl)C1 (stereo partly drawn) [Compound 23, (3R)/(3S)-1-{(1R,2R)/(1S,2S)-2-[2-(2,6-dichlorophenyl)-ethoxy]cyclohexyl}-pyrrolidin-3-ol hydrochloride]	65	8		
Cl.OC1CCN(C2CCCC[C@@H]2OCCc2ccccc2Br)C1 (stereo partly drawn) [Compound 24, (3R)/(3S)-1-{(1R,2R)/(1S,2S)-2-[2-(2-bromophenyl)-ethoxy]cyclohexyl}-pyrrolidin-3-ol hydrochloride]	67	13		
Cl.OC1CCN([C@@H]2CCCC[C@@H]2OCCc2cccc3ccccc23)C1 (stereo partly drawn) [Compound 25, (3R)/(3S)-1-{(1R,2S)/(1S,2R)-2-[2-(1-naphthyl)ethoxy]-cyclohexyl}-pyrrolidin-3-ol hydrochloride]	70	16		
Cl.OC1CCN(C2CCCC[C@@H]2OCCc2cccc3ccccc23)C1 (stereo partly drawn) [Compound 26, (3R)/(3S)-1-{(1R,2R)/(1S,2S)-2-[2-(1-naphthyl)ethoxy]-cyclohexyl}-pyrrolidin-3-ol hydrochloride]	67.33	8		
Cl.O[C@@H]1CCN(C2CCCC[C@@H]2OCCc2ccccc2C(F)(F)F)C1 (stereo partly drawn) [Compound 27, (3R)-1-{(1R,2R)/(1S,2S)-2-[2-(2-Trifluoromethyl-phenyl)ethoxy]-cyclohexyl}-pyrrolidin-3-ol hydrochloride]	101.93	16		
Cl.OC1CCN(C2CCCC[C@@H]2OCCn2ccc3ccccc32)C1 (stereo partly drawn) [Compound 28, (3R)/(3S)-1-{(1R,2R)/(1S,2S)-2-[2-(1H-indol-1-yl)ethoxy]cyclohexyl}pyrrolidin-3-ol hydrochloride]	113	16		
Cl.O[C@@H]1CCN(C2CCCC[C@@H]2OCCc2cc3ccccc3o2)C1 (stereo partly drawn) [Compound 29, (3R)-1-{(1R,2R)/(1S,2S)-2-[2-(1-benzofuran-2-yl)ethoxy]-cyclohexyl}-pyrrolidin-3-ol hydrochloride]	65.67	10.67		
c1ccc2cc(CCO[C@H]3CCCCC3N3CCOCC3)ccc2c1 (stereo partly drawn) [Compound 30, (1R,2R)/(1S,2S)-[2-(4-morpholinyl)-1-(2-naphthenethoxy)]-cyclohexane]	85	13.3		
c1ccc2c(CCO[C@H]3CCCCC3N3CCOCC3)cccc2c1 (stereo partly drawn) [Compound 31, (1R,2R)/(1S,2S)-[2-(4-morpholinyl)-1-(1-naphthenethoxy)]-cyclohexane]	93	16		
Brc1ccc(CCO[C@H]2CCCCC2N2CCOCC2)cc1 (stereo partly shown) [Compound 32]	91	12		
